# Molecular target: human PAD4 (hPAD4) (Homo sapiens, UniProt Q9UM07)
# Assay: RFMS human PAD4 functional assay (rapid-fire mass spectrum)
# Type: biochemical
# Conditions: 5 nM hPAD4 enzyme, 250 μM BAEE, 50 μM Calcium; 30 min preincubation, 90 min reaction at 37° C.
# How it was run: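 PAD4 (10 nM) preincubated 30 min with compound (top final 50 μM), then BAEE substrate added in pH 7.5 HEPES buffer with DTT, 50 μM calcium, TPEN; 90 min at 37° C. After TCA quench, citrulline derivatized with phenyl glyoxal (4 mM final, 30 min, 37° C) and quantified by RapidFire MS against internal standard.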
# human PAD4 (hPAD4), sequence (Q9UM07 whole entry): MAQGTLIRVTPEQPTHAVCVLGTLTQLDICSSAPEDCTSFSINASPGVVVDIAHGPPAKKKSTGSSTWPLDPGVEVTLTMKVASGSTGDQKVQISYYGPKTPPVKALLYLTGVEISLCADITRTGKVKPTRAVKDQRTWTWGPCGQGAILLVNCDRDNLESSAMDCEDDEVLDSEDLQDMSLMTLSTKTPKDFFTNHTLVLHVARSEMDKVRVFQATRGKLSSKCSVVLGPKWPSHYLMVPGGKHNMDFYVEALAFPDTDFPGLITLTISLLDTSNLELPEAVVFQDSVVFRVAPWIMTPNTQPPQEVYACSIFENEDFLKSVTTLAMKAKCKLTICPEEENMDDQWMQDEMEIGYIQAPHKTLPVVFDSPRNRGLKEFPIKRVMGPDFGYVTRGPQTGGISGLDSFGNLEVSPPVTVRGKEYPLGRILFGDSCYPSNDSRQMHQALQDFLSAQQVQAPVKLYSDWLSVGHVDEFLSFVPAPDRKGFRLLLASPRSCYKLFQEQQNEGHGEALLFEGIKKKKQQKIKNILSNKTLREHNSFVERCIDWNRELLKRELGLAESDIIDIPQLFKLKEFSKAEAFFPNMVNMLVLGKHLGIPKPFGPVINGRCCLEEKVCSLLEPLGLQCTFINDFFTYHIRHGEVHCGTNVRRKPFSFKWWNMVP
row,Compound,IC50 [nM]
1,"COc1cc(C(=O)N2C[C@H](N)C[C@@H](F)C2)cc2nc(-c3cc4ccccc4n3CC3CC3)n(Cc3cccs3)c12 [Example 255, (3R,5R)-1-{2-[1-(cyclopropylmethyl)-1H-indol-2-yl]-7-methoxy-1-[(thiophen-2-yl)methyl]-1H-1,3-benzodiazole-5-carbonyl}-5-fluoropiperidin-3-amine]",37
2,"COc1cc(C(=O)N2C[C@H]3CC[C@@H]2[C@@H]3N)cc2nc(-c3cc4cccnc4n3CC3CC3)n(C3CN(c4ccnc(C5CC5)n4)C3)c12 [Example 70, (1R,4R,7R)-2-{2-[1-(cyclopropylmethyl)-1H-pyrrolo[2,3-b]pyridin-2-yl]-1-[1-(2-cyclopropylpyrimidin-4-yl)azetidin-3-yl]-7-methoxy-1H-1,3-benzodiazole-5-carbonyl}-2-azabicyclo[2.2.1]heptan-7-amine]",87
3,"COc1cc(C(=O)N2C[C@H]3CC[C@@H]2[C@@H]3N)cc2nc(-c3cc4cccnc4n3CC3CC3)n(C[C@H]3CCN(c4cncc(C#N)c4)C3)c12 [Example 195, 5-[(3S)-3-({5-[(1R,4R,7R)-7-amino-2-azabicyclo[2.2.1]heptane-2-carbonyl]-2-[1-(cyclopropylmethyl)-1H-pyrrolo[2,3-b]pyridin-2-yl]-7-methoxy-1H-1,3-benzodiazol-1-yl}methyl)pyrrolidin-1-yl]pyridine-3-carbonitrile]",14
4,"5-(4-((5-((1R,4R,7R)-7-amino-2-azabicyclo[2.2.1]heptane-2-carbonyl)-2-(1-(cyclopropylmethyl)-1H-pyrrolo[2,3-b]pyridin-2-yl)-7-methoxy-1H-benzo[d]imidazol-1-yl)methyl)piperdine-1-carbonyl)pyrimidine-2-carbonitrile [Example 194]",74
5,"COc1ccc2cc(-c3nc4cc(C(=O)N5C[C@H]6CC[C@@H]5[C@@H]6N)cc(OC)c4n3CC3CN(c4ccnc(C#N)n4)C3)n(CC3CC3)c2n1 [Example 2, 4-(3-((5-((1R,4R,7R)-7-amino-2-azabicyclo[2.2.1]heptane-2-carbonyl)-2-(1-(cyclopropylmethyl)-6-methoxy-1H-pyrrolo[2,3-b]pyridin-2-yl)-7-methoxy-1H-benzo[d]imidazol-1-yl)methyl)azetidin-1-yl)pyrimidine-2-carbonitrile]",49
6,"COc1cc(C(=O)N2C[C@H]3CC[C@@H]2[C@@H]3N)cc2nc(-c3cc4ccccc4n3CC3CC3)n(CC3CN(C(=O)c4ccc(C#N)cc4)C3)c12 [Example 91, 4-[3-({5-[(1R,4R,7R)-7-amino-2-azabicyclo[2.2.1]heptane-2-carbonyl]-2-[1-(cyclopropylmethyl)-1H-indol-2-yl]-7-methoxy-1H-1,3-benzodiazol-1-yl}methyl)azetidine-1-carbonyl]benzonitrile]",9
7,"COc1ccccc1C(=O)N1CC(Cn2c(-c3cc4ccccc4n3CC3CC3)nc3cc(C(=O)N4C[C@H]5CC[C@@H]4[C@@H]5N)cc(OC)c32)C1 [Example 168, (1R,4R,7R)-2-{2-[1-(cyclopropylmethyl)-1H-indol-2-yl]-7-methoxy-1-{[1-(2-methoxybenzoyl)azetidin-3-yl]methyl}-1H-1,3-benzodiazol-5-carbonyl}-2-azabicyclo[2.2.1]heptan-7-amine]",33
8,"COc1cc(C(=O)N2C[C@H]3CC[C@@H]2[C@@H]3N)cc2nc(-c3cc4ccccc4n3C)n(CC3CN(c4cncnc4C#N)C3)c12 [Example 44, 5-[3-({5-[(1R,4R,7R)-7-amino-2-azabicyclo[2.2.1]heptane-2-carbonyl]-7-methoxy-2-(1-methyl-1H-indol-2-yl)-1H-1,3-benzodiazol-1-yl}methyl)azetidin-1-yl]pyrimidine-4-carbonitrile]",112
9,"COc1cc(C(=O)N2C[C@H](N)C[C@@H](F)C2)cc2nc(-c3cc4ccccc4n3CC3CC3)n(CC3CN(c4ccnc(C#N)n4)C3)c12 [Example 4, 4-(3-((5-((3R,5R)-3-amino-5-fluoropiperidine-1-carbonyl)-2-(1-(cyclopropylmethyl)-1H-indol-2-yl)-7-methoxy-1H-benzo[d]imidazol-1-yl)methyl)azetidin-1-yl)pyrimidine-2-carbonitrile]",35
10,"COc1cc(C(=O)N2C[C@H]3CC[C@@H]2[C@@H]3N)cc2nc(-c3cc4cccnc4n3CC3CC3)n(CC3CN(c4ccncc4)C3)c12 [Example 57, (1R,4R,7R)-2-{2-[1-(cyclopropylmethyl)-1H-pyrrolo[2,3-b]pyridin-2-yl]-7-methoxy-1-{[1-(pyridin-4-yl)azetidin-3-yl]methyl}-1H-1,3-benzodiazole-5-carbonyl}-2-azabicyclo[2.2.1]heptan-7-amine]",168

# The remaining lines, values ahead:
row,IC50 [nM],Compound
1,37,"COc1cc(C(=O)N2CC3CCC2[C@@H]3N)cc2nc(-c3cc4ccccc4n3CC3CC3)n(Cc3cnn(-c4cccc(C)n4)c3)c12 (stereo partly drawn) [Example 381, (7R)-2-{2-[1-(cyclopropylmethyl)-1H-indol-2-yl]-7-methoxy-1-{[1-(6-methylpyridin-2-yl)-1H-pyrazol-4-yl]methyl}-1H-1,3-benzodiazole-5-carbonyl}-2-azabicydo[2.2.1]heptan-7-amine]"
2,33,"COc1cc(C(=O)N2CC3CCC2[C@@H]3N)cc2nc(-c3cc4cccnc4n3CC3CC3)n(CC3CN(C(=O)c4ccc(F)cc4F)C3)c12 (stereo partly drawn) [Example 434, (7R)-2-{2-[1-(cyclopropylmethyl)-1H-pyrrolo[2,3-b]pyridin-2-yl]-1-{[1-(2,4-difluorobenzoyl)azetidin-3-yl]methyl}-7-methoxy-1H-1,3-benzodiazole-5-carbonyl}-2-azabicyclo[2.2.1]heptan-7-amine]"
3,66,"COc1cc(C(=O)N2CC3CCC2[C@@H]3N)cc2nc(-c3cc4ccccc4n3CC3CC3)n(Cc3cnn(CC#N)c3)c12 (stereo partly drawn) [Example 405, 2-[4-({5-[(7R)-7-amino-2-azabicyclo[2.2.1]heptane-2-carbonyl]-2-[1-(cyclopropylmethyl)-1H-indol-2-yl]-7-methoxy-1H-1,3-benzodiazol-1-yl}methyl)-1H-pyrazol-1-yl]acetonitrile]"
4,310,"CCS(=O)(=O)N1CC(Cn2c(-c3cc4cccnc4n3CC3CC3)nc3cc(C(=O)N4CC5CCC4[C@@H]5N)cc(OC)c32)C1 (stereo partly drawn) [Example 336, (1R,4R.,7R)-2-{2-[1-(cyclopropylmethyl)-1H-pyrrolo[2,3-b]pyridin-2-yl]-1-{[1-(ethanesulfonyl)azetidin-3-yl]methyl}-7-methoxy-1H-1,3-benzodiazole-5-carbonyl}-2-azabicyclo[2.2,1]heptan-7-amine]"
5,35,"COc1cc(C(=O)N2CC3CCC2[C@@H]3N)cc2nc(-c3cc4cccnc4n3CC3CC3)n(Cc3cnn(-c4cccnc4O)c3)c12 (stereo partly drawn) [Example 374, 3-[4-({5-[(7R)-7-amino-2-azabicyclo[2.2.1]heptane-2-carbonyl]-2-[1-(cyclopropylmethyl)-1H-pyrrolo[2,3-b]pyridin-2-yl]-7-methoxy-1H-1,3-benzodiazol-1-yl}methyl)-1H-pyrazol-1-yl]pyridin-2-ol]"
6,136,"CCn1cc(Cn2c(-c3cc4cccnc4n3CC3CC3)nc3cc(C(=O)N4C[C@H](N)C[C@@H](F)C4)cc(OC)c32)cn1 [Example 501, (3R,5R)-1-{2-[1-(cyclopropylmethyl)-1H-pyrrolo[2,3-b]pyridin-2-yl]-1-[(1-ethyl-1H-pyrazol-4-yl)methyl]-7-methoxy-1H-1,3-benzodiazole-5-carbonyl}-5-fluoropiperidin-3-amine]"
